Data reported in patent publication US12441691B2 (Cytokinetics, Inc., priority 2020, dated 2025).

What follows are molecules tested on rabbit skeletal myofibrils (fast skeletal myofibrils) (assay: Activation of fast skeletal myofibrils (PUMA assay, AC1.4)). Details: calcium at pCa25, AC1.4 = concentration at which the compound increased the enzymatic activity.
Assay type: biochemical
Summary of the method: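 In 12 mM PIPES pH 6.8 with 2 mM MgCl2 and 1 mM DTT, Triton-washed rabbit skeletal myofibrils were run at the pCa25 calcium level. Myosin-made ADP was recycled through a PK/LDH coupled system; NADH loss read at 340 nm.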
`CC[C@H](C)[C@H]1C(=O)Nc2ccccc2CN1C(=O)N1CC(N2CCN(CCO)CC2)C1` [Compound 267, (S)-3-((S)-sec-butyl)-4-(3-(4-(2-hydroxyethyl)piperazin-1-yl)azetidine-1-carbonyl)-1,3,4,5-tetrahydro-2H-benzo[e][1,4]diazepin-2-one] gave an AC1.4 of 0.95 µM.
For `CC[C@H](C)[C@H]1C(=O)Nc2ccccc2CN1C(=O)N1CC(N2CCN(c3ccccn3)CC2)C1` [Compound 268, (S)-3-((S)-sec-butyl)-4-(3-(4-(pyridin-2-yl)piperazin-1-yl)azetidine-1-carbonyl)-1,3,4,5-tetrahydro-2H-benzo[e][1,4]diazepin-2-one], the AC1.4 was 1.03 µM.
Work on `CC[C@H](C)[C@H]1C(=O)Nc2ccccc2CN1C(=O)N1CC(OCC(=O)N(C)C)C1` [Compound 269, 2-((1-((S)-3-((S)-sec-butyl)-2-oxo-2,3,4,5-tetrahydro-1H-benzo[e][1,4]diazepine-4-carbonyl)azetidin-3-yl)oxy)-N,N-dimethylacetamide] yielded an AC1.4 of 0.92 µM.
`CC[C@H](C)[C@H]1C(=O)Nc2ccccc2CN1C(=O)N1CC(OCC(=O)NC)C1` [Compound 270, 2-((1-((S)-3-((S)-sec-butyl)-2-oxo-2,3,4,5-tetrahydro-1H-benzo[e][1,4]diazepine-4-carbonyl)azetidin-3-yl)oxy)-N-methylacetamide] showed an AC1.4 of 0.94 µM.
For `CC[C@H](C)[C@H]1C(=O)Nc2ccccc2CN1C(=O)N1CC(C)(N)C1` [Compound 271, (S)-4-(3-amino-3-methylazetidine-1-carbonyl)-3-((S)-sec-butyl)-1,3,4,5-tetrahydro-2H-benzo[e][1,4]diazepin-2-one], the AC1.4 was 0.95 µM.
`CC[C@H](C)[C@H]1C(=O)Nc2ccccc2CN1C(=O)N1C2COCC1C2` [Compound 272, (3S)-4-(3-oxa-6-azabicyclo[3.1.1]heptane-6-carbonyl)-3-((S)-sec-butyl)-1,3,4,5-tetrahydro-2H-benzo[e][1,4]diazepin-2-one] gave an AC1.4 of 2.62 µM.
In the case of `CC[C@H](C)[C@H]1C(=O)Nc2ccccc2CN1C(=O)NC1(C#N)CC1` [Compound 273, (S)-3-((S)-sec-butyl)-N-(1-cyanocyclopropyl)-2-oxo-1,2,3,5-tetrahydro-4H-benzo[e][1,4]diazepine-4-carboxamide], the AC1.4 is reported as 3.02 µM.
Molecule `CC[C@H](C)[C@H]1C(=O)Nc2ccccc2CN1C(=O)Nc1ccc(=O)n(CC(F)F)n1` [Compound 274, (S)-3-((S)-sec-butyl)-N-(1-(2,2-difluoroethyl)-6-oxo-1,6-dihydropyridazin-3-yl)-2-oxo-1,2,3,5-tetrahydro-4H-benzo[e][1,4]diazepine-4-carboxamide] has an AC1.4 of 0.06 µM.
Molecule `CC[C@H](C)[C@H]1C(=O)Nc2ccccc2CN1C(=O)Nc1ccc(=O)n(CC(F)(F)F)n1` [Compound 275, (S)-3-((S)-sec-butyl)-2-oxo-N-(6-oxo-1-(2,2,2-trifluoroethyl)-1,6-dihydropyridazin-3-yl)-1,2,3,5-tetrahydro-4H-benzo[e][1,4]diazepine-4-carboxamide] has an AC1.4 of 0.06 µM.
`CC[C@H](C)[C@H]1C(=O)Nc2ccccc2CN1C(=O)NCc1ccccc1` [Compound 276, (S)-N-benzyl-3-((S)-sec-butyl)-2-oxo-1,2,3,5-tetrahydro-4H-benzo[e][1,4]diazepine-4-carboxamide] was tested, and the AC1.4 was 0.24 µM.
Work on `CC[C@H](C)[C@H]1C(=O)Nc2ccccc2CN1C(=O)Nc1cccc(F)c1` [Compound 277, (S)-3-((S)-sec-butyl)-N-(3-fluorophenyl)-2-oxo-1,2,3,5-tetrahydro-4H-benzo[e][1,4]diazepine-4-carboxamide] yielded an AC1.4 of 0.08 µM.
In the case of `CC[C@H](C)[C@H]1C(=O)Nc2ccccc2CN1C(=O)Nc1cnc2[nH]ncc2c1` [Compound 278, (S)-3-((S)-sec-butyl)-2-oxo-N-(1H-pyrazolo[3,4-b]pyridin-5-yl)-1,2,3,5-tetrahydro-4H-benzo[e][1,4]diazepine-4-carboxamide], the AC1.4 is reported as 0.05 µM.
`CC[C@H](C)[C@H]1C(=O)Nc2ccccc2CN1C(=O)N1CC[C@H](C(=O)OC)C1` [Compound 279, methyl (S)-1-((S)-3-((S)-sec-butyl)-2-oxo-2,3,4,5-tetrahydro-1H-benzo[e][1,4]diazepine-4-carbonyl)pyrrolidine-3-carboxylate] showed an AC1.4 of 1.46 µM.
With `CC[C@H](C)[C@H]1C(=O)Nc2ccccc2CN1C(=O)N1CC[C@@H](O)C1` [Compound 280, (S)-3-((S)-sec-butyl)-4-((R)-3-hydroxypyrrolidine-1-carbonyl)-1,3,4,5-tetrahydro-2H-benzo[e][1,4]diazepin-2-one] the AC1.4 was 1.06 µM.
`CC[C@H](C)[C@H]1C(=O)Nc2ccccc2CN1C(=O)N1CCN(CCc2ccccc2)CC1` [Compound 281, (S)-3-((S)-sec-butyl)-4-(4-phenethylpiperazine-1-carbonyl)-1,3,4,5-tetrahydro-2H-benzo[e][1,4]diazepin-2-one] showed an AC1.4 of 0.30 µM.
In the case of `CC[C@H](C)[C@H]1C(=O)Nc2ccccc2CN1C(=O)N1CC[C@H](O)C1` [Compound 282, (S)-3-((S)-sec-butyl)-4-((S)-3-hydroxypyrrolidine-1-carbonyl)-1,3,4,5-tetrahydro-2H-benzo[e][1,4]diazepin-2-one], the AC1.4 is reported as 0.38 µM.
Work on `CC[C@H](C)[C@H]1C(=O)Nc2ccccc2CN1C(=O)Nc1nnc(C)s1` [Compound 283, (S)-3-((S)-sec-butyl)-N-(5-methyl-1,3,4-thiadiazol-2-yl)-2-oxo-1,2,3,5-tetrahydro-4H-benzo[e][1,4]diazepine-4-carboxamide] yielded an AC1.4 of 0.09 µM.
`CC[C@H](C)[C@H]1C(=O)Nc2ccccc2CN1C(=O)Nc1cccnc1CO` [Compound 284, (S)-3-((S)-sec-butyl)-N-(2-(hydroxymethyl)pyridin-3-yl)-2-oxo-1,2,3,5-tetrahydro-4H-benzo[e][1,4]diazepine-4-carboxamide] was tested, and the AC1.4 was 0.11 µM.
For `CC[C@H](C)[C@H]1C(=O)Nc2ccccc2CN1C(=O)N1CC[C@@H](CO)C1` [Compound 285, (S)-3-((S)-sec-butyl)-4-((R)-3-(hydroxymethyl)pyrrolidine-1-carbonyl)-1,3,4,5-tetrahydro-2H-benzo[e][1,4]diazepin-2-one], the AC1.4 was 0.54 µM.
In the case of `CC[C@H](C)[C@H]1C(=O)Nc2ccccc2CN1C(=O)NCc1ccccc1C(N)=O` [Compound 286], the AC1.4 is reported as 0.30 µM.
For `CC[C@H](C)[C@H]1C(=O)Nc2ccccc2CN1C(=O)N[C@H](C(N)=O)c1ccccc1` [Compound 287, (S)-N-((S)-2-amino-2-oxo-1-phenylethyl)-3-((S)-sec-butyl)-2-oxo-1,2,3,5-tetrahydro-4H-benzo[e][1,4]diazepine-4-carboxamide], the AC1.4 was 0.35 µM.
Molecule `CC[C@H](C)[C@H]1C(=O)Nc2ccccc2CN1C(=O)c1ccc(C(N)=O)cc1` [Compound 288, 4-((S)-3-((S)-sec-butyl)-2-oxo-2,3,4,5-tetrahydro-1H-benzo[e][1,4]diazepine-4-carbonyl)benzamide] has an AC1.4 of 0.16 µM.
`CC[C@H](C)[C@H]1C(=O)Nc2ccccc2CN1C(=O)N1CC[C@H](C(=O)O)C1` [Compound 289, (S)-1-((S)-3-((S)-sec-butyl)-2-oxo-2,3,4,5-tetrahydro-1H-benzo[e][1,4]diazepine-4-carbonyl)pyrrolidine-3-carboxylic acid] was tested, and the AC1.4 was 3.59 µM.
`CC[C@H](C)[C@H]1C(=O)Nc2ccccc2CN1C(=O)NC1CCN(C)CC1` [Compound 290, (S)-3-((S)-sec-butyl)-N-(1-methylpiperidin-4-yl)-2-oxo-1,2,3,5-tetrahydro-4H-benzo[e][1,4]diazepine-4-carboxamide] showed an AC1.4 of 0.15 µM.
`CC[C@H](C)[C@H]1C(=O)Nc2ccccc2CN1C(=O)Nc1ccn(C)c(=O)c1` [Compound 291, (S)-3-((S)-sec-butyl)-N-(1-methyl-2-oxo-1,2-dihydropyridin-4-yl)-2-oxo-1,2,3,5-tetrahydro-4H-benzo[e][1,4]diazepine-4-carboxamide] was tested, and the AC1.4 was 0.05 µM.
`CC[C@H](C)[C@H]1C(=O)Nc2ccccc2CN1C(=O)Nc1cncc(OC)c1` [Compound 292, (S)-3-((S)-sec-butyl)-N-(5-methoxypyridin-3-yl)-2-oxo-1,2,3,5-tetrahydro-4H-benzo[e][1,4]diazepine-4-carboxamide] gave an AC1.4 of 0.05 µM.
Work on `CC[C@H](C)[C@H]1C(=O)Nc2ccccc2CN1C(=O)NC1CCOCC1` [Compound 293, (S)-3-((S)-sec-butyl)-2-oxo-N-(tetrahydro-2H-pyran-4-yl)-1,2,3,5-tetrahydro-4H-benzo[e][1,4]diazepine-4-carboxamide] yielded an AC1.4 of 0.55 µM.
`CC[C@H](C)[C@H]1C(=O)Nc2ccccc2CN1C(=O)N1CC[C@H](C(=O)NC)C1` [Compound 294, (S)-1-((S)-3-((S)-sec-butyl)-2-oxo-2,3,4,5-tetrahydro-1H-benzo[e][1,4]diazepine-4-carbonyl)-N-methylpyrrolidine-3-carboxamide] was tested, and the AC1.4 was 2.32 µM.
For `CC[C@H](C)[C@H]1C(=O)Nc2ccccc2CN1C(=O)N1CC[C@H](C(=O)N(C)C)C1` [Compound 295], the AC1.4 was 3.41 µM.
`CC[C@H](C)[C@H]1C(=O)Nc2ccccc2CN1C(=O)N1CC[C@H](C(N)=O)C1` [Compound 296, (S)-1-((S)-3-((S)-sec-butyl)-2-oxo-2,3,4,5-tetrahydro-1H-benzo[e][1,4]diazepine-4-carbonyl)pyrrolidine-3-carboxamide] showed an AC1.4 of 1.75 µM.
`CC[C@H](C)[C@H]1C(=O)Nc2ccccc2CN1C(=O)N(C)C(C)C` [Compound 297, (S)-3-((S)-sec-butyl)-N-isopropyl-N-methyl-2-oxo-1,2,3,5-tetrahydro-4H-benzo[e][1,4]diazepine-4-carboxamide] showed an AC1.4 of 1.13 µM.
In the case of `CC[C@H](C)[C@H]1C(=O)Nc2ccccc2CN1C(=O)Nc1cncc(C(N)=O)c1` [Compound 298, (S)-3-((S)-sec-butyl)-N-(5-carbamoylpyridin-3-yl)-2-oxo-1,2,3,5-tetrahydro-4H-benzo[e][1,4]diazepine-4-carboxamide], the AC1.4 is reported as 0.07 µM.
